{"source": "paper PMC4490784", "about": "“Compensatory induction of MYC expression by sustained CDK9 inhibition via a BRD4-dependent mechanism” (eLife, 2015)", "experiment_in_all_cases": "biochemical binding or enzymatic assay", "key": {"GSK3B": {"target": "T1, GSK3B (Homo sapiens, UniProt P49841)", "T1 construct": "purchased DiscoveRx KINOMEscan", "T1 sequence (P49841 whole entry)": "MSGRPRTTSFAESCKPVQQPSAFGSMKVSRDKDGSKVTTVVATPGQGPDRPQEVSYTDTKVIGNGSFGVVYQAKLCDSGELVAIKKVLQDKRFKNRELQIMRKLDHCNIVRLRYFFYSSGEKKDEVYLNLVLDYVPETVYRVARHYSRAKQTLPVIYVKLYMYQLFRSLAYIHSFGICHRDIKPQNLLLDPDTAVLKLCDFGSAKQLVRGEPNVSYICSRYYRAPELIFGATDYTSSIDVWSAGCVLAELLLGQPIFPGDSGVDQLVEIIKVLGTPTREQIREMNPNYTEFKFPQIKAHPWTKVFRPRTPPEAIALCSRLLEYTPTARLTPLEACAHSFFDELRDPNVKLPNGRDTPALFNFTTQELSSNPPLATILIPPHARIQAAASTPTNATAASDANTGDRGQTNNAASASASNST", "conditions": "Novartis", "protocol": "(§1) Finally, the selectivity profile of i-CDK9 toward other non-CDK kinases was also assessed using the KINOMEscan platform. […] Except for CLK4, for which no suitable assay was available, the rest of the kinases plus a selected group of others were re-examined for the concentration-dependent effect of i-CDK9 in either functional kinase assays or binding assays. […] Indeed, it has recently been reported that DYRK1A acts as a Pol II CTD Kinase at its target gene promoters ([Di Vona et al., 2015])."}, "EPHB4": {"target": "T2, EPHB4 (Homo sapiens, UniProt P54760)", "T2 construct": "purchased DiscoveRx KINOMEscan", "T2 sequence (P54760 16-987)": "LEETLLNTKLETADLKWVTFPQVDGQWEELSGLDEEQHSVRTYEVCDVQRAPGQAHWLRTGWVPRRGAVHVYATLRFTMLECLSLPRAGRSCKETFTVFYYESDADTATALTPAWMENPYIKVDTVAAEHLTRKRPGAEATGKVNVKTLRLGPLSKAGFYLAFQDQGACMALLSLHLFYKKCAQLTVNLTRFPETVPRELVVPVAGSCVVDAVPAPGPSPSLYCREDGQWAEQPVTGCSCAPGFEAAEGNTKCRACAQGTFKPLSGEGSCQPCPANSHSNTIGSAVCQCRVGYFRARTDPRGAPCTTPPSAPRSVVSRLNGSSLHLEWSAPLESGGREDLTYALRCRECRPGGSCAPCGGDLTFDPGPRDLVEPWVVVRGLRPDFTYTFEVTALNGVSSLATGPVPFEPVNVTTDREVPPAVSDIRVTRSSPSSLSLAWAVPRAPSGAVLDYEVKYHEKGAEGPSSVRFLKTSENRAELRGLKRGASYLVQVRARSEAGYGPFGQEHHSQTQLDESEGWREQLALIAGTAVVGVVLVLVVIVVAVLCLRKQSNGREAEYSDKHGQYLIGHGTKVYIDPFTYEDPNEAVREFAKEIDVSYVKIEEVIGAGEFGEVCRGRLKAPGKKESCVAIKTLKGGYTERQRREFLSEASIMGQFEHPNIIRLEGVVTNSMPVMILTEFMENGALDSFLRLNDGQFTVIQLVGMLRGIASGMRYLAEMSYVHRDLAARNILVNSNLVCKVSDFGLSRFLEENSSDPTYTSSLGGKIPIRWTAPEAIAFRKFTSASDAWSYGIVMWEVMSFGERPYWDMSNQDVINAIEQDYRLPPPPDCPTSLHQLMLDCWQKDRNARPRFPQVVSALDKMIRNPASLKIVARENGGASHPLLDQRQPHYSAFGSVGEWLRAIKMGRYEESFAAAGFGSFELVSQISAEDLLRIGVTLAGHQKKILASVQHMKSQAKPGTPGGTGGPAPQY", "conditions": "Novartis", "protocol": "as §1"}, "AXL": {"target": "T3, AXL (Homo sapiens, UniProt P30530)", "T3 construct": "purchased DiscoveRx KINOMEscan", "conditions": "Novartis", "protocol": "as §1"}, "PLK1": {"target": "T4, PLK1 (Homo sapiens, UniProt P53350)", "T4 construct": "purchased DiscoveRx KINOMEscan", "T4 sequence (P53350 whole entry)": "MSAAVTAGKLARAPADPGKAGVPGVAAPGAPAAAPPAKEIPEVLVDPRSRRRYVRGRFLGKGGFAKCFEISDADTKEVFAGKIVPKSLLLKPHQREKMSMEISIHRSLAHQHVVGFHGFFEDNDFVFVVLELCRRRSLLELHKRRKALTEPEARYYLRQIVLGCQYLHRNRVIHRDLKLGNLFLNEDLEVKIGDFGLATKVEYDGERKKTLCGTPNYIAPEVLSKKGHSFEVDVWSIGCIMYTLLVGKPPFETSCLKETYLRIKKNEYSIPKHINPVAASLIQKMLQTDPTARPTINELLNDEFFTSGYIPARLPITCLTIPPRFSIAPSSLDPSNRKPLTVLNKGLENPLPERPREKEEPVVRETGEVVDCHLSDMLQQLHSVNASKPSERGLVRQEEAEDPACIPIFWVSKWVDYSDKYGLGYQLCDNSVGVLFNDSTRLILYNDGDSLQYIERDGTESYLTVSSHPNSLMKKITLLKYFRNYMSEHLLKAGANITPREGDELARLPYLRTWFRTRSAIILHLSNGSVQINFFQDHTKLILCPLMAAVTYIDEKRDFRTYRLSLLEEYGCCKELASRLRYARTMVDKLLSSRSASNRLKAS", "conditions": "Novartis", "protocol": "as §1"}, "PCTK2": {"target": "T5, PCTK2 (Homo sapiens, UniProt Q00537)", "T5 construct": "purchased DiscoveRx KINOMEscan", "T5 sequence (Q00537 whole entry)": "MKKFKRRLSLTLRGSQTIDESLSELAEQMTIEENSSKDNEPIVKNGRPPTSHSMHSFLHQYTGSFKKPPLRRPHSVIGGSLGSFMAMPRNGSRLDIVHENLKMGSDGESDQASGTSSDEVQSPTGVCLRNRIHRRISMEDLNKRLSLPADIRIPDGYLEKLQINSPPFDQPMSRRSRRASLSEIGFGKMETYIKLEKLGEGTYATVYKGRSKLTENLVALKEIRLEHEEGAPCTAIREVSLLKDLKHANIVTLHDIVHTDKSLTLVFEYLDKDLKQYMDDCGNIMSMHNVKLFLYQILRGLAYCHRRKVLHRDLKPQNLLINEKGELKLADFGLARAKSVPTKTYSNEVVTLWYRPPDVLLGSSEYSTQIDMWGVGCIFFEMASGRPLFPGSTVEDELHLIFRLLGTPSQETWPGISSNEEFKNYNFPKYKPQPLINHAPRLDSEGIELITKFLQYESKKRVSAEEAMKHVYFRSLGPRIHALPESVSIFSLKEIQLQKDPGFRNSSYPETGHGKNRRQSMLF", "conditions": "Ambit", "protocol": "as §1"}, "MET": {"target": "T6, MET (Homo sapiens, UniProt P08581)", "T6 construct": "purchased DiscoveRx KINOMEscan", "T6 sequence (P08581 25-1390)": "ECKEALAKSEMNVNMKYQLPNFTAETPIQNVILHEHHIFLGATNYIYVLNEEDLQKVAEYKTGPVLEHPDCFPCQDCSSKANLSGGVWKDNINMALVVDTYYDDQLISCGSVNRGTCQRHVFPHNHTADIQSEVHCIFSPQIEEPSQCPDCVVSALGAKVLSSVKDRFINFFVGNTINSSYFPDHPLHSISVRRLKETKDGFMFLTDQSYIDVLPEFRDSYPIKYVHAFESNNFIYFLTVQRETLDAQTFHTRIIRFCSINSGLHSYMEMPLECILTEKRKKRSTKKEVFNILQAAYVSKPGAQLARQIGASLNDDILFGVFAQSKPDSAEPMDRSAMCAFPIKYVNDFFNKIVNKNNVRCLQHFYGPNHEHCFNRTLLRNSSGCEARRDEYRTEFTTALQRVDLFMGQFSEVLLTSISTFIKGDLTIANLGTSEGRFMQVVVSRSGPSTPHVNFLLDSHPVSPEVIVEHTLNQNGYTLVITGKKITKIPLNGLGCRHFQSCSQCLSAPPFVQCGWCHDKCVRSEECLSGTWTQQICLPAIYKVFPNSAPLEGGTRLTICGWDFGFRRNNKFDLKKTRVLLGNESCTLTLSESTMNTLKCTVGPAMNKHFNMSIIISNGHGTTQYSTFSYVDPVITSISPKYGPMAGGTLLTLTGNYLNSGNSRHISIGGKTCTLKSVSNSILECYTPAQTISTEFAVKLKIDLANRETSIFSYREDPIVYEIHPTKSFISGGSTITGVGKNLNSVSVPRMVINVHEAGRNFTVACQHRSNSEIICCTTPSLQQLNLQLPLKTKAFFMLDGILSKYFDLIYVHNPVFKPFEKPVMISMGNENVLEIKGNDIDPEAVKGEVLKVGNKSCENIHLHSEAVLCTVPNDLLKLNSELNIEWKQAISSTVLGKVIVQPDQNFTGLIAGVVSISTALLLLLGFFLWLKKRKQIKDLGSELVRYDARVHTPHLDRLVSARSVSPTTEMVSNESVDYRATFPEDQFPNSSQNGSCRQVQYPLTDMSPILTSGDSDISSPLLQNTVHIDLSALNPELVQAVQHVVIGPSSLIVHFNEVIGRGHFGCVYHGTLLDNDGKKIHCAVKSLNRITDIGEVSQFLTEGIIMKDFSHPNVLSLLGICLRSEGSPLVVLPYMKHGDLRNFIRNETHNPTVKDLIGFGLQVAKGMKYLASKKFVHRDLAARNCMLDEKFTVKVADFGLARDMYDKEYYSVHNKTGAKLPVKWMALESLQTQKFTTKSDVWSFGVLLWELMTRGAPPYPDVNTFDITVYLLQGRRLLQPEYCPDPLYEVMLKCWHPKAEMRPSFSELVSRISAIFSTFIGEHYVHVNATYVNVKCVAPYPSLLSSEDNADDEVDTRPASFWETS", "conditions": "Novartis", "protocol": "as §1"}, "CSK": {"target": "T7, CSK (Homo sapiens, UniProt P41240)", "T7 construct": "purchased DiscoveRx KINOMEscan", "T7 sequence (P41240 whole entry)": "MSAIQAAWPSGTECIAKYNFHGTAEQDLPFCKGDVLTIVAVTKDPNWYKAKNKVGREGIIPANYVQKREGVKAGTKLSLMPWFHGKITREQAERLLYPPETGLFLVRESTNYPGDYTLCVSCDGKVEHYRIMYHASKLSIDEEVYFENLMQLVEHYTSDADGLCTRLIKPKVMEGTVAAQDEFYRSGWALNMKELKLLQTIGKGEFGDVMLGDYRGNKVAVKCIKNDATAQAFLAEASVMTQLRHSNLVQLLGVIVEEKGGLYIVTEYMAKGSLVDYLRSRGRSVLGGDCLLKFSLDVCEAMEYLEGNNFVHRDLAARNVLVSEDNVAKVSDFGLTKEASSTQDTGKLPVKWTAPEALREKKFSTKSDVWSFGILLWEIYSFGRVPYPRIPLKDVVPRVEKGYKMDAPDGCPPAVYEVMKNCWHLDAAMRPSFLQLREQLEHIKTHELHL", "conditions": "Novartis", "protocol": "as §1"}, "PAK2": {"target": "T8, PAK2 (Homo sapiens, UniProt Q13177)", "T8 construct": "purchased DiscoveRx KINOMEscan", "conditions": "Novartis", "protocol": "as §1"}, "ROCK2": {"target": "T9, ROCK2 (Homo sapiens, UniProt O75116)", "T9 construct": "purchased DiscoveRx KINOMEscan", "conditions": "Novartis", "protocol": "as §1"}, "DYRK2": {"target": "T10, DYRK2 (Homo sapiens, UniProt Q92630)", "T10 construct": "purchased DiscoveRx KINOMEscan", "T10 sequence (Q92630 1-601)": "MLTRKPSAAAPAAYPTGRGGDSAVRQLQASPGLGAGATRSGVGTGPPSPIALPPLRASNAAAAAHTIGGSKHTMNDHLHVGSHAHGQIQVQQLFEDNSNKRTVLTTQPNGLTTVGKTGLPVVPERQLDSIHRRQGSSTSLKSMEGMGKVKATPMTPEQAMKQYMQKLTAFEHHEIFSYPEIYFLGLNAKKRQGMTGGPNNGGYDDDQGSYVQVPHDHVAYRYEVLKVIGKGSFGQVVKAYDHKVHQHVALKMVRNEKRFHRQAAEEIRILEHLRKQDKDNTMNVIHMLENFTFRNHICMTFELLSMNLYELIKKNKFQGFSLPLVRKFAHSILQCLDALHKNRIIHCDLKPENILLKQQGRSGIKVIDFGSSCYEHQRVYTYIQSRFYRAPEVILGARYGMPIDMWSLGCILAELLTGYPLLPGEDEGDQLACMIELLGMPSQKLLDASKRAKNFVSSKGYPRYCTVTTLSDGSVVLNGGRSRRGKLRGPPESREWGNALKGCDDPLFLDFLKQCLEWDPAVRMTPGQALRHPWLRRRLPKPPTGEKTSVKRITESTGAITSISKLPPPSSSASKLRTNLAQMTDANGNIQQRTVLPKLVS", "conditions": "Millipore", "protocol": "as §1"}, "FAK": {"target": "T11, FAK (Homo sapiens, UniProt Q05397)", "T11 construct": "purchased DiscoveRx KINOMEscan", "T11 sequence (Q05397 whole entry)": "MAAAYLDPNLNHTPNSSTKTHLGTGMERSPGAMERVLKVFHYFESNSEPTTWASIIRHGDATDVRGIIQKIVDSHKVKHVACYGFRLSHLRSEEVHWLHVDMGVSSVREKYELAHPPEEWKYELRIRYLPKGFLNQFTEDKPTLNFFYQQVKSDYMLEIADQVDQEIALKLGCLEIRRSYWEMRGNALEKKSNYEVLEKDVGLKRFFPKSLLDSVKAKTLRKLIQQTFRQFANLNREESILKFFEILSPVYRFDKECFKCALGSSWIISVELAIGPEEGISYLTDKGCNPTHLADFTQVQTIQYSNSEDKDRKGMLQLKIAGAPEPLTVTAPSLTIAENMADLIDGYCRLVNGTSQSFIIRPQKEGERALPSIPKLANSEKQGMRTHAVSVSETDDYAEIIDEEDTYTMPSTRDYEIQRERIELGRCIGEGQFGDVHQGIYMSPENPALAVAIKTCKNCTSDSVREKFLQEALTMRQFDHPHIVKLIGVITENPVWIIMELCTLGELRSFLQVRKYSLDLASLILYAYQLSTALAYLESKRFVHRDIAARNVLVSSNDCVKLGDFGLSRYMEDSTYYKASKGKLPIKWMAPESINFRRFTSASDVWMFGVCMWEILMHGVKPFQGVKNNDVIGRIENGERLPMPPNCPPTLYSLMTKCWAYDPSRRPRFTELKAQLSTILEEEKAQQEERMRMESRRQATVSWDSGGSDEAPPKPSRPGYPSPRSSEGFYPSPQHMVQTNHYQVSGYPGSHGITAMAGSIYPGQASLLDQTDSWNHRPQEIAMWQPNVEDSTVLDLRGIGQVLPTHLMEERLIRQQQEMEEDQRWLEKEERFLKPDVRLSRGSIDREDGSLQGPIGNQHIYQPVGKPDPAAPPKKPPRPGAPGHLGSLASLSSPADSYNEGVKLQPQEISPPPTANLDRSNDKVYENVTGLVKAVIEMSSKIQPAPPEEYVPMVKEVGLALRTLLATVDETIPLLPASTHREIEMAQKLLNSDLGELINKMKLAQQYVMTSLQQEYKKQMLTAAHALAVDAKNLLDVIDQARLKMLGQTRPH", "conditions": "Novartis", "protocol": "as §1"}, "MKNK2": {"target": "T12, MKNK2 (Homo sapiens, UniProt Q9HBH9)", "T12 construct": "purchased DiscoveRx KINOMEscan", "T12 sequence (Q9HBH9 whole entry)": "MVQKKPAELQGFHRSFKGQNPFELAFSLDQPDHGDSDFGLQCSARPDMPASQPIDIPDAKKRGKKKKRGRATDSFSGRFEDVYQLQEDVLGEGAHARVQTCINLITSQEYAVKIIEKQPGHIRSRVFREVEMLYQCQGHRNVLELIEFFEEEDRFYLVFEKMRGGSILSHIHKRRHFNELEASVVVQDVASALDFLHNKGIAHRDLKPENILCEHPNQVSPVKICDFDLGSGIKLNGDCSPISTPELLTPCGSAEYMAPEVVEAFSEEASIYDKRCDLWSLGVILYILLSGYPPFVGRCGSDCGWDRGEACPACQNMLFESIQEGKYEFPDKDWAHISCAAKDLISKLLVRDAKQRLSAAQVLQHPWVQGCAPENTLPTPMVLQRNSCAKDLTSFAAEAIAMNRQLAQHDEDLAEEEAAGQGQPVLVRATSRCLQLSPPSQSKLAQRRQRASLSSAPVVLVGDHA", "conditions": "Novartis", "protocol": "as §1"}, "MAPKAPK2": {"target": "T13, MAPKAPK2 (Homo sapiens, UniProt P49137)", "T13 construct": "purchased DiscoveRx KINOMEscan", "conditions": "Novartis", "protocol": "as §1"}, "MAPKAPK5": {"target": "T14, MAPKAPK5 (Homo sapiens, UniProt Q8IW41)", "T14 construct": "purchased DiscoveRx KINOMEscan", "T14 sequence (Q8IW41 1-473)": "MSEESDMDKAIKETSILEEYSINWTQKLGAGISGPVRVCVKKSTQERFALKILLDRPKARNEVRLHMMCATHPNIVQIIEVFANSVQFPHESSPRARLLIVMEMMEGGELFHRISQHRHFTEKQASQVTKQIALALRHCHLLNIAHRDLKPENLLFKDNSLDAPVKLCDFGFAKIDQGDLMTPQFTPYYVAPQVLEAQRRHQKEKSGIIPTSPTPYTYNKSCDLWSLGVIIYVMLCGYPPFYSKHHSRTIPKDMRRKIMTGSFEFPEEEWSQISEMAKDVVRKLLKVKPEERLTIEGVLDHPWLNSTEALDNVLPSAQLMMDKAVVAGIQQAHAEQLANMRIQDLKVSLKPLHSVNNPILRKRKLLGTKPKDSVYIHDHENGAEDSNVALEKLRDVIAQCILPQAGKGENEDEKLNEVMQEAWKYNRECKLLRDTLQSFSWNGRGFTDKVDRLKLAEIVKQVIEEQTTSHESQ", "conditions": "Novartis", "protocol": "as §1"}}}
{"molecule": "N[C@H]1CC[C@H](Nc2cc(-c3cccc(NCc4cccc(F)c4)n3)c(Cl)cn2)CC1", "note": "[i-CDK9, N2′-(trans-4-aminocyclohexyl)-5′-chloro-N6-(3-fluorobenzyl)-2,4′-bipyridine-2′,6-diamine]", "values": [{"measurement": "IC50", "setting": "GSK3B", "value": 1.6, "unit": "µM"}, {"measurement": "IC50", "setting": "EPHB4", "value": "> 10", "unit": "µM"}, {"measurement": "IC50", "setting": "AXL", "value": "> 10", "unit": "µM"}, {"measurement": "IC50", "setting": "PLK1", "value": "> 10", "unit": "µM"}, {"measurement": "IC50", "setting": "PCTK2", "value": "> 0.079", "unit": "µM"}, {"measurement": "IC50", "setting": "MET", "value": "> 10", "unit": "µM"}, {"measurement": "IC50", "setting": "CSK", "value": "> 10", "unit": "µM"}, {"measurement": "IC50", "setting": "PAK2", "value": "> 10", "unit": "µM"}, {"measurement": "IC50", "setting": "ROCK2", "value": "> 10", "unit": "µM"}, {"measurement": "IC50", "setting": "DYRK2", "value": 1.07, "unit": "µM"}, {"measurement": "IC50", "setting": "FAK", "value": "> 10", "unit": "µM"}, {"measurement": "IC50", "setting": "MKNK2", "value": "> 10", "unit": "µM"}, {"measurement": "IC50", "setting": "MAPKAPK2", "value": "> 10", "unit": "µM"}, {"measurement": "IC50", "setting": "MAPKAPK5", "value": "> 10", "unit": "µM"}]}
